# Source: patent US5798375A, “Treatment of arteriosclerosis and xanthoma” (Sankyo Company, Limited, priority 1995, dated 1998)
# Key:
# [1] = Example 1: plasma total cholesterol in WHHL rabbits; type: in vivo; details: pravastatin 50 mg/kg/day oral gavage, troglitazone in diet containing 100 mg/kg
# Procedure: (§1) WHHL rabbits [2-3 months of age, the Watanabe heritable hyperlipidemic rabbit described in Biochimica et Biophysica Acta, 960, 294-302 (1988)] were randomly assigned to a control group (7 animals, group A), a group receiving pravastatin alone (5 animals, Group B), a group receiving troglitazone alone (7 animals, Group C), and a group receiving a combination of both active substances (6 animals, Group D). Pravastatin was administered orally by gavage at a dose of 50 mg/kg/day once-daily and troglitazone was given in the diet, containing 100 mg/kg of the substance for 32 weeks. The ingested amount was limited to a daily 120 g per rabbit. Blood was withdrawn from the animal immediately before starting the study and 4, 8, 12, 16, 20, 24, 28 and 32 weeks after starting the study and the total cholesterol levels (mg/dl) were determined for each blood sample. The levels are reported as a percentage (%) of the levels measured immediately before starting the study. The animals were sacrificed and necropsied at week 32 to examine (a) the percent lesion area (%) in the total, thoracic or abdominal portion of the aorta; (b) the stenosis (%) of the coronary arteries and (c) the incidence (%) of xanthoma in the digital joints.
# WHHL rabbits [2] = experiment: Example 1: percent lesion area of the aorta in WHHL rabbits; type: in vivo; details: week 32, mean ± standard error, pravastatin 50 mg/kg/day, troglitazone in diet containing 100 mg/kg, * p < 0.05 vs control
# Procedure: as §1
# (§2) The values actually measured are represented as an average value±standard error in those Tables.
# WHHL rabbits [3] = experiment: Example 1: stenosis of the coronary arteries in WHHL rabbits; type: in vivo; details: week 32
# Procedure: as §1, §2
# WHHL rabbits [4] = experiment: Example 2: average thickening of intima in aorta; type: in vivo, Male WHHL rabbits; design: Average thickening of intima, Aortic Arch, percentage against the control group / Average thickening of intima, Total Aorta, percentage against the control group: concentration or dose not given beside the values
# Procedure: (§3) Each test compound was administered for eight months to the rabbits in the form of an aqueous suspension (0.5% carboxymethylcellulose added). In the control group, a 0.5% carboxymethylcellulose solution only was administered.
# The values actually measured are represented as the mean value plus or minus a standard error (μm). The numbers in parentheses represent the percentage intimal thickening against the control group. A significant difference was observed between Groups D and F at the aortic arch, and between Groups C and E and between Groups D and F over the total aorta (p<0.05) under the Mann-Whitney's U-Test.
# The average thickening of the intima is calculated by the cross-sectional area of the aortic tunica intima one section from the arch and two sections from the thoracic and abdominal portions, divided by the length of the tunica media.
# WHHL rabbits [5] = experiment: Example 2: aortic cholesterol content; type: in vivo, Male WHHL rabbits
# Procedure: as §3
# The aortic cholesterol content was measured The tunica media and tunica intima at the aortic arch and at the thoracic and abdominal aorta were peeled away with tweezers and cut into pieces. The pieces were extracted with a 2:1 by volume mixture of chloroform and methanol.
# The chloroform phase was separated and evaporated to dryness and the residue was dissolved in isopropanol. The total cholesterol and the free cholesterol were measured by a conventional enzymatic method.
# Data are expressed by the mean plus or minus standard error (mg/g tissue). The values in parentheses indicate the percentage against the control. A significant difference against the control group was observed by the unpaired student t-test: […]
# WHHL rabbits [6] = experiment: Example 2: incidence and degree of xanthoma of the four legs; type: in vivo, Male WHHL rabbits; design: Frequency of massive xanthoma: unit not given here
# Procedure: as §3
# The incidence and the degree of xanthoma of the four legs were measured.
# [7] = system: Male New Zealand white rabbits; experiment: Example 3: regression of established atherosclerotic lesions in the cholesterol-fed rabbit model; type: in vivo; details: for Rate of lesion area, against the control group: figure in parentheses; for Rate of lesion area: thoracic aorta, two months, mean ± standard error, control 29 ± 20
# Procedure: The rabbits were grouped randomly (3-9 animals per group) and the test samples were administered orally for two months, while they were fed with a normolipidaemic diet. […] The results are shown in terms of the percentage of lesion area in the thoracic aorta.
# Male Fl b hamsters = experiment: Example 4: regression of preformed atherosclerosis in hamsters (Oil Red O stained area); type: in vivo
# Procedure: Synergism of HMG CoA reductase inhibitors and thiazolidinedione insulin sensitizers was examined by another regression model, i.e. the regression of preformed atherosclerosis in hamsters. Male Fl b hamsters (weight about 130 g,) were given a diet containing 0.05% cholesterol for 13 weeks. They were grouped randomly (2-7 animals per group), and then the test samples were administered for 4 weeks while the hamsters were given a normolipidaemic diet. Pravastatin and fluvastatin were mixed with drinking water at the dose of 3 mg/kg and 1.5 mg/kg, respectively, while troglitazone was mixed with the diet at the dose of 30 mg/kg or 100 mg/kg.
# In the case of the combination groups, the dosage was 3 mg/kg+30 mg/kg or 3 mg/kg+100 mg/kg for the pravastatin+troglitazone group, and 1.5 mg/kg+30 mg/kg for the fluvastatin+troglitazone group.
# Namely, the aortic arch was stained with ORO to prepare en face specimens. The percentage area which was positive to the ORO stain over the whole area was measured to represent the degree of aortic lesion.
# [8] = system: coronary arteriosclerosis and xanthoma; details: literature: Biochim. Biophys. Acta 960, 294-302 (1988); Atherosclerosis 83, 69-80 (1990); cited from earlier work
# [9] = oral, eight months, control 100 (14/14), *p < 0.05, **p < 0.01 vs control
smiles,measurement,setting,value
"CC[C@H](C)C(=O)O[C@H]1C[C@H](O)C=C2C=C[C@H](C)[C@H](CC[C@@H](O)C[C@@H](O)CC(=O)O)[C@H]21 [Pravastatin, sodium 1,2,6,7,8,8a-hexahydro-6,8-tetrahydroxy-2-methyl-1-naphthaleneheptanoate]","total cholesterol level, % of level before starting the study",[1]; week 4,87%
same,"total cholesterol level, % of level before starting the study",[1]; week 8,87%
same,"total cholesterol level, % of level before starting the study",[1]; week 12,81%
same,"total cholesterol level, % of level before starting the study",[1]; week 16,81%
same,"total cholesterol level, % of level before starting the study",[1]; week 20,75%
same,"total cholesterol level, % of level before starting the study",[1]; week 24,68%
same,"total cholesterol level, % of level before starting the study",[1]; week 28,68%
same,"total cholesterol level, % of level before starting the study",[1]; week 32,60%
same,"Lesion area, Abdominal aorta",WHHL rabbits [2]; control 29.9 ± 4.4,28.2 ± 8.1%
same,"Lesion Area, Total Aorta",WHHL rabbits [2]; control 65.7 ± 3.9,53.8 ± 8.2%
same,"Lesion area, Thoracic aorta",WHHL rabbits [2]; control 79.3 ± 5.4,64.6 ± 10.4%
same,"Coronary stenosis, RCA (right coronary artery)",WHHL rabbits [3]; control 13,18%
same,"Coronary stenosis, LAD (left anterior descending artery)",WHHL rabbits [3]; control 24,16%
same,"Coronary stenosis, LSP (left septal artery)",WHHL rabbits [3]; control 40,9%
same,"Coronary stenosis, LCX (left circumflex artery)",WHHL rabbits [3]; control 47,34%
same,"Coronary stenosis, MLC (main left coronary artery)",WHHL rabbits [3]; control 61,71%
same,"Coronary stenosis, MRC (main right coronary artery)",WHHL rabbits [3]; control 79,81%
same,suppression of intimal thickening,WHHL rabbits [4]; combinations compared with Groups C and D,slight suppression of intimal thickening
same,"Average thickening of intima, Aortic Arch, percentage against the control group",WHHL rabbits [4]; number in parentheses,82%
same,"Average thickening of intima, Total Aorta, percentage against the control group",WHHL rabbits [4]; number in parentheses,82%
same,"Average thickening of intima in aorta, Total Aorta","WHHL rabbits [4]; oral, eight months, pravastatin 50, pioglitazone 20, Compound A 10 mg/kg, mean ± standard error, control 154 ± 33",126 ± 22 μm
same,"Average thickening of intima in aorta, Aortic Arch","WHHL rabbits [4]; oral, eight months, pravastatin 50, pioglitazone 20, Compound A 10 mg/kg, mean ± standard error, control 237 ± 63",194 ± 42 μm
same,"Cholesterol level of Thoracic and Abdominal Aorta, Esterified","WHHL rabbits [5]; mean ± standard error, control 5.3 ± 1.7",4.7 ± 0.7 mg/g tissue
same,"Cholesterol Content of Aortic Arch, Esterified","WHHL rabbits [5]; mean ± standard error, control 6.5 ± 1.4, *p < 0.05",6.4 ± 1.1 mg/g tissue
same,"Cholesterol level of Thoracic and Abdominal Aorta, Free","WHHL rabbits [5]; mean ± standard error, control 14.8 ± 2.3, *p < 0.05 vs control",12.5 ± 1.3 mg/g tissue
same,"Cholesterol level of Thoracic and Abdominal Aorta, Total","WHHL rabbits [5]; mean ± standard error, control 20.1 ± 2.3, *p < 0.05, **p < 0.02 vs control",17.2 ± 1.6 mg/g tissue
same,"Cholesterol Content of Aortic Arch, Free","WHHL rabbits [5]; mean ± standard error, control 20.6 ± 2.9",18.6 ± 4.4 mg/g tissue
same,"Cholesterol Content of Aortic Arch, Total","WHHL rabbits [5]; mean ± standard error, control 27.1 ± 3.3",24.9 ± 5.2 mg/g tissue
same,"Cholesterol Content of Aortic Arch, Esterified, percentage against the control",WHHL rabbits [5]; number in parentheses,98%
same,"Cholesterol Content of Aortic Arch, Free, percentage against the control",WHHL rabbits [5]; number in parentheses,90%
same,"Cholesterol Content of Aortic Arch, Total, percentage against the control",WHHL rabbits [5]; number in parentheses,92%
same,"Cholesterol level of Thoracic and Abdominal Aorta, Esterified, percentage against the control",WHHL rabbits [5]; number in parentheses,89%
same,"Cholesterol level of Thoracic and Abdominal Aorta, Free, percentage against the control",WHHL rabbits [5]; number in parentheses,84%
same,"Cholesterol level of Thoracic and Abdominal Aorta, Total, percentage against the control",WHHL rabbits [5]; number in parentheses,86%
same,Frequency of massive xanthoma,"WHHL rabbits [6]; control 57, *p < 0.05, **p < 0.01 vs control",42
same,incidence of xanthoma,WHHL rabbits [6]; forelegs and hindlegs,slightly less frequent incidence of xanthoma
same,Distribution of severity of lesion: (-) no lesions,"WHHL rabbits [6]; number of legs, control 0",3
same,Distribution of severity of lesion: (+++) severe lesion,"WHHL rabbits [6]; number of legs, control 6",2
same,Distribution of severity of lesion: (++) moderate lesion,"WHHL rabbits [6]; number of legs, control 10",8
same,Distribution of severity of lesion: (+) slight lesion,"WHHL rabbits [6]; number of legs, control 12",11
same,"Incidence of xanthoma, Forelegs",WHHL rabbits [6]; [9],100%
same,"Incidence of xanthoma, Hindlegs",WHHL rabbits [6]; [9],75%
same,"Incidence of xanthoma, Total","WHHL rabbits [6]; oral, eight months, control 100 (28/28), *p < 0.05, **p < 0.01 vs control",88%
same,"Rate of lesion area, against the control group",[7]; 3 mg/kg,103
same,"Rate of lesion area, against the control group",[7]; 5 mg/kg,79
same,Rate of lesion area,[7]; 3 mg/kg oral,30 ± 12%
same,Rate of lesion area,[7]; 5 mg/kg oral,23 ± 9%
same,"Stained Area, % of Control",Male Fl b hamsters; 3 mg/kg,106%
same,Stained Area ORO,"Male Fl b hamsters; aortic arch, 3 mg/kg in drinking water, 4 weeks, control 1.82 ± 0.44",1.93 ± 0.33%
same,regression of aortic lesions,"Male Fl b hamsters; pravastatin 3 mg/kg, fluvastatin 1.5 mg/kg, troglitazone 30 mg/kg alone, combinations",no regression of aortic lesions
same,"prevention of coronary arteriosclerosis and xanthoma, efficacy",[8],"may be prevented in rabbits receiving pravastatin, but its efficacy remains insufficient"
